Data published in article PMC4394464, “Identification and Pharmacokinetics of Multiple Potential Bioactive Constituents after Oral Administration of Radix Astragali on Cyclophosphamide-Induced Immunosuppression in Balb/c Mice” (International Journal of Molecular Sciences, 2015).
Where two headings read alike, the source gives them in different places.

Assays:
[1] = Pharmacokinetics of five main constituents in immunosuppressive mice plasma after oral administration of RA (HPLC-MS/MS); type: in vivo, Balb/c mice
Protocol: The maximum plasma concentration (Cmax) and the time of maximum plasma concentration (tmax) were obtained from the observed data (Table 3). The plasma concentration-time profiles for calycosin-7-O-glucoside, ononin, calycosin, formononetin and astragaloside IV are shown in Figure 4.
To quantify calycosin-7-O-glucoside, ononin, calycosin, formononetin and astragaloside IV in mice, a 10-μL IS solution was added into 50 μL of plasma and mixed for 30 s. Then, 1 mL ethyl acetate was added to the tube and vortexed for 3 min. […] Ten microliters of the supernatant were injected into the HPLC-MS/MS system.
The quantification was performed by an LC-MS/MS system, which consisted of an Agilent 1200 HPLC series system and an Agilent 6410 triple quadrupole mass spectrometer (Agilent Technol., Santa Clara, CA, USA) equipped with an electrospray ionization source. Samples were separated by a rapid resolution HT C18 column (2.1 mm × 50 mm, 1.8 μm, Agilent Technol.) at 30 °C. The mobile phase consisted of 0.1 formic acid both in methanol (A) and water (B) using a gradient elution program of 25%–50% A (0–5 min) and 50%–90% (5–10 min). The flow rate was 0.2 mL/min, and the injection volume was 10 μL. Detection was performed in the positive ion mode using multiple reaction monitoring (MRM) of the m/z 447.1/285.0 for calycosin-7-O-glucoside, m/z 431.1/269.0 for ononin, m/z 285.0/137.0 for calycosin, m/z 269.0/213.0 for formononetin, m/z 807.4/627.3 for astragaloside IV and m/z 271.1/151.0 for naringenin.

[2] = Profiling of absorbed constituents and metabolites in mice plasma after oral administration of RA (UFLC-DAD-Q-TOF-MS/MS); conditions: oral RA extract 6 g/kg BW; cyclophosphamide-induced immunosuppressed Balb/c mice; plasma sampled 0.25-36 h; '-' = not detected
Protocol: The peaks that appeared at the same position in the total ion chromatograms of both the dosed mice bio-samples and the RA extract, but not in the chromatograms of the controlled mice bio-samples, were regarded as absorbed constituents [22].
Following randomization into study groups, mice (6/group/male) received intraperitoneal injection once daily of cyclophosphamide (i.p. 80 mg/kg BW) for 6 days. Additionally, the control group was injected intraperitoneally with sterile physiological saline. […] Plasma was harvested by centrifugation at 3000× g for 10 min and then kept frozen at −70 °C until analysis.
After being vortexed for 1 min, the sample was centrifuged at 13,000× g at 4 °C for 30 min. The supernate was transferred into a fresh tube and evaporated with nitrogen. Then, the residue was dissolved in a 60-μL mobile phase with vortex mixing for 3 min and centrifuged at 13,000× g for 30 min. Finally, 10 μL of the supernatant were injected into the UFLC/DAD/Q-TOF-MS/MS system.
The multiple constituents in RA and the absorbed compounds in mice plasma were identified by the ultra-fast liquid chromatography/diode-array detector/quadrupole time-of-flight tandem mass spectrometry (UFLC/DAD/Q-TOF-MS/MS) method.

[3] = male, Balb/c, mouse, in vivo, po, 6 g/kg

Row | Source: Dosed Plasma (time points at which the compound was detected) [2] [h] | double-peak phenomenon, time of second peak ([1]; after oral administration of RA, immunosuppressive Balb/c mice plasma) [h] | AUC(0-t) ([1]; male, mouse, oral RA extract 6 g/kg BW, immunosuppressive Balb/c mice plasma, 0-36 h, read-out: AUC(0–t)) [ng·h/mL] | AUC(0-inf) ([1]; male, mouse, oral RA extract 6 g/kg BW, immunosuppressive Balb/c mice plasma, read-out: AUC(0–∞)) [ng·h/mL] | Cmax ([1]; male, mouse, oral RA extract 6 g/kg BW, immunosuppressive Balb/c mice plasma, read-out: Cmax) [ng/mL] | half-life ([1]; male, mouse, oral RA extract 6 g/kg BW, immunosuppressive Balb/c mice plasma, read-out: t1/2z (converted)) [h] | Tmax ([1]; male, mouse, oral RA extract 6 g/kg BW, immunosuppressive Balb/c mice plasma, read-out: tmax) [h] | double-peak phenomenon, time of second peak ([1]; male, Balb/c, mouse, in vivo, po) [h] | AUC(0-inf) [1, 3] [ng·h/mL] | AUC(0-t) [1, 3] [ng·h/mL] | Cmax [1, 3] [ng/mL] | Tmax [1, 3] [h] | half-life [1, 3] [h] | Structure (SMILES) | AUC(0-t) ([1]; male, mouse, in vivo, 6 g/kg BW, oral RA, immunosuppressive Balb/c mice plasma, read-out: AUC0–t) [ng·h/mL] | Cmax ([1]; male, mouse, in vivo, 6 g/kg BW, oral RA, immunosuppressive Balb/c mice plasma, read-out: Cmax) [ng/mL] | AUC(0-t) ([1]; male, mouse, in vivo, oral RA extract 6 g/kg BW, immunosuppressive Balb/c mice plasma, 0-36 h, read-out: AUC(0–t)) [ng·h/mL] | AUC(0-inf) ([1]; male, mouse, in vivo, oral RA extract 6 g/kg BW, immunosuppressive Balb/c mice plasma, read-out: AUC(0–∞)) [ng·h/mL] | Cmax ([1]; male, mouse, in vivo, oral RA extract 6 g/kg BW, immunosuppressive Balb/c mice plasma, read-out: Cmax) [ng/mL] | half-life ([1]; male, mouse, in vivo, oral RA extract 6 g/kg BW, immunosuppressive Balb/c mice plasma, read-out: t1/2z (converted)) [h] | Tmax ([1]; male, mouse, in vivo, oral RA extract 6 g/kg BW, immunosuppressive Balb/c mice plasma, read-out: tmax) [h]
1 | 0.25 to 24 | 6 | 136 ± 41.4 | 155 ± 37.7 | 33 | 2.21 ± 0.92 | 1.5 | – | – | – | – | – | – | COc1ccc(-c2coc3cc(O)ccc3c2=O)cc1O [Peak 37, Calycosin] | – | – | – | – | – | – | –
2 | 0.25 to 24 | – | – | – | – | – | – | 6 | 256 ± 45.7 | 233 ± 47.8 | 47.9 | 2 | 3.99 ± 1.03 | COc1ccc(-c2coc3cc(O)ccc3c2=O)cc1 [Peak 39, Formononetin] | – | – | – | – | – | – | –

Row | Structure (SMILES) | Source: Dosed Plasma (time points at which the compound was detected) [2] [h] | double-peak phenomenon, time of second peak ([1]; after oral administration of RA, immunosuppressive Balb/c mice plasma) [h] | AUC(0-t) ([1]; male, mouse, oral RA extract 6 g/kg BW, immunosuppressive Balb/c mice plasma, 0-36 h, read-out: AUC(0–t)) [ng·h/mL] | AUC(0-inf) ([1]; male, mouse, oral RA extract 6 g/kg BW, immunosuppressive Balb/c mice plasma, read-out: AUC(0–∞)) [ng·h/mL] | Cmax ([1]; male, mouse, oral RA extract 6 g/kg BW, immunosuppressive Balb/c mice plasma, read-out: Cmax) [ng/mL] | half-life ([1]; male, mouse, oral RA extract 6 g/kg BW, immunosuppressive Balb/c mice plasma, read-out: t1/2z (converted)) [h] | Tmax ([1]; male, mouse, oral RA extract 6 g/kg BW, immunosuppressive Balb/c mice plasma, read-out: tmax) [h] | double-peak phenomenon, time of second peak ([1]; male, Balb/c, mouse, in vivo, po) [h] | AUC(0-inf) [1, 3] [ng·h/mL] | AUC(0-t) [1, 3] [ng·h/mL] | Cmax [1, 3] [ng/mL] | Tmax [1, 3] [h] | half-life [1, 3] [h] | AUC(0-t) ([1]; male, mouse, in vivo, 6 g/kg BW, oral RA, immunosuppressive Balb/c mice plasma, read-out: AUC0–t) [ng·h/mL] | Cmax ([1]; male, mouse, in vivo, 6 g/kg BW, oral RA, immunosuppressive Balb/c mice plasma, read-out: Cmax) [ng/mL] | AUC(0-t) ([1]; male, mouse, in vivo, oral RA extract 6 g/kg BW, immunosuppressive Balb/c mice plasma, 0-36 h, read-out: AUC(0–t)) [ng·h/mL] | AUC(0-inf) ([1]; male, mouse, in vivo, oral RA extract 6 g/kg BW, immunosuppressive Balb/c mice plasma, read-out: AUC(0–∞)) [ng·h/mL] | Cmax ([1]; male, mouse, in vivo, oral RA extract 6 g/kg BW, immunosuppressive Balb/c mice plasma, read-out: Cmax) [ng/mL] | half-life ([1]; male, mouse, in vivo, oral RA extract 6 g/kg BW, immunosuppressive Balb/c mice plasma, read-out: t1/2z (converted)) [h] | Tmax ([1]; male, mouse, in vivo, oral RA extract 6 g/kg BW, immunosuppressive Balb/c mice plasma, read-out: tmax) [h]
3 | CC(C)(O)[C@@H]1CC[C@](C)(C2[C@@H](O)C[C@@]3(C)[C@@H]4C[C@H](O[C@@H]5O[C@H](CO)[C@@H](O)[C@H](O)[C@H]5O)C5C(C)(C)[C@@H](O[C@@H]6OC[C@@H](O)[C@H](O)[C@H]6O)CC[C@@]56C[C@@]46CC[C@]23C)O1 (single isomer, unassigned) [Peak 45, Astragaloside IV] | 0.25 to 24 | – | – | – | – | – | – | – | – | – | – | – | – | 695 ± 179 | 129 | 695 ± 179 | 722 ± 197 | 129 | 3.48 ± 1.15 | 1.5
